Organism: Mus musculus
Test: Inhibitory activity against production of nitric oxide induced by interferon-gamma in mouse macrophages; call rule not given here
Format: functional, organism-based
`COC(=O)C1=C[C@]2(C)[C@H]3CC=C4C5CC(C)(C)CC[C@]5(C(=O)OC)CC[C@@]4(C)[C@]3(C)CC[C@H]2C(C)(C)C1=O` (some centres undefined) showed an IC50 of 900 nM.
With `CC1(C)CC[C@]2(C(=O)O)CC[C@]3(C)C(=CC[C@@H]4[C@@]5(C)C=C(C(=O)O)C(=O)C(C)(C)[C@@H]5CC[C@]43C)C2C1` (some centres undefined) the IC50 was 70 nM.
`COC(=O)[C@]12CCC(C)(C)C[C@H]1[C@H]1C(=O)C=C3[C@@]4(C)C=C(C#N)C(=O)C(C)(C)[C@@H]4CC[C@@]3(C)[C@]1(C)CC2` [BARDOXOLONE METHYL] gave an IC50 of 0.1 nM.
Compound `CC1(C)CC[C@]2(C(=O)O)CC[C@]3(C)C(=CC[C@@H]4[C@@]5(C)C=CC(=O)C(C)(C)[C@@H]5CC[C@]43C)C2C1` (some centres undefined) has an IC50 of 5600 nM.
For `COC(=O)[C@]12CCC(C)(C)CC1C1=CC[C@@H]3[C@@]4(C)C=C(Br)C(=O)C(C)(C)[C@@H]4CC[C@@]3(C)[C@]1(C)CC2` (some centres undefined), the IC50 was > 40000 nM.
With `COC(=O)[C@]12CCC(C)(C)CC1C1=CC[C@@H]3[C@@]4(C)C=C(Cl)C(=O)C(C)(C)[C@@H]4CC[C@@]3(C)[C@]1(C)CC2` (some centres undefined) the IC50 was > 40000 nM.
With `COC(=O)[C@]12CCC(C)(C)CC1C1=CC[C@@H]3[C@@]4(C)C=C(C#N)C(=O)C(C)(C)[C@@H]4CC[C@@]3(C)[C@]1(C)CC2` (some centres undefined) the IC50 was 700 nM.
Compound `COC(=O)[C@]12CCC(C)(C)CC1C1C(=O)C=C3[C@@]4(C)C=C(C(=O)O)C(=O)C(C)(C)[C@@H]4CC[C@@]3(C)[C@]1(C)CC2` (some centres undefined) has an IC50 of 0.8 nM.
In the case of `COC(=O)[C@]12CCC(C)(C)CC1C1=CC[C@@H]3[C@@]4(C)C=C(C(=O)O)C(=O)C(C)(C)[C@@H]4CC[C@@]3(C)[C@]1(C)CC2` (some centres undefined), the IC50 is reported as 800 nM.
`CC1(C)CC[C@]2(C(=O)O)CC[C@]3(C)C(=CC[C@@H]4[C@@]5(C)C=C(Cl)C(=O)C(C)(C)[C@@H]5CC[C@]43C)C2C1` (some centres undefined) was tested, and the IC50 was > 40000 nM.
`COC(=O)C1=C[C@]2(C)[C@H]3CC=C4C5CC(C)(C)CC[C@]5(C(=O)O)CC[C@@]4(C)[C@]3(C)CC[C@H]2C(C)(C)C1=O` (some centres undefined) was tested, and the IC50 was 2200 nM.
Compound `C[C@@H]1C[C@H]2[C@@H]3CCC4=CC(=O)C=C[C@]4(C)[C@@]3(F)[C@@H](O)C[C@]2(C)[C@@]1(O)C(=O)CO` [DEXAMETHASONE] has an IC50 of 0.1 nM.
Work on `C[C@]12CCC(=O)C=C1CCC1[C@@H]2[C@@H](O)C[C@@]2(C)[C@H]1CC[C@]2(O)C(=O)CO` (single isomer, unassigned) [HYDROCORTISONE] yielded an IC50 of 10 nM.
`COC(=O)C1=C[C@]2(C)C3=CC(=O)C4C5CC(C)(C)CC[C@]5(C(=O)O)CC[C@@]4(C)[C@]3(C)CC[C@H]2C(C)(C)C1=O` (some centres undefined) was tested, and the IC50 was 100 nM.
Compound `CC1(C)CC[C@]2(C(=O)O)CC[C@]3(C)C(C(=O)C=C4[C@@]5(C)C=C(C(=O)O)C(=O)C(C)(C)[C@@H]5CC[C@]43C)C2C1` (some centres undefined) has an IC50 of 200 nM.
With `CC1(C)CC[C@]2(C(=O)O)CC[C@]3(C)[C@H](C(=O)C=C4[C@@]5(C)C=C(C#N)C(=O)C(C)(C)[C@@H]5CC[C@]43C)[C@@H]2C1` [BARDOXOLONE] the IC50 was 0.2 nM.
In the case of `COC(=O)[C@]12CCC(C)(C)CC1C1=CC[C@@H]3[C@@]4(C)C=C(C(N)=O)C(=O)C(C)(C)[C@@H]4CC[C@@]3(C)[C@]1(C)CC2` (some centres undefined), the IC50 is reported as 14000 nM.
With `CC1(C)CC[C@]2(C(=O)O)CC[C@]3(C)C(=CC[C@@H]4[C@@]5(C)CC[C@H](O)C(C)(C)[C@@H]5CC[C@]43C)[C@@H]2C1` [OLEANOLIC_ACID] the IC50 was > 40000 nM.
`COC(=O)[C@]12CCC(C)(C)CC1C1=CC(=O)[C@@H]3[C@@]4(C)C=C(C#N)C(=O)C(C)(C)[C@@H]4CC[C@@]3(C)[C@]1(C)CC2` (some centres undefined) showed an IC50 of 20 nM.
Work on `CC1(C)CC[C@]2(C(=O)O)CC[C@]3(C)C(=CC[C@@H]4[C@@]5(C)C=C(Br)C(=O)C(C)(C)[C@@H]5CC[C@]43C)C2C1` (some centres undefined) yielded an IC50 of 7300 nM.
With `CC1(C)CC[C@]2(C(=O)O)CC[C@]3(C)[C@H](C(=O)C=C4[C@@]5(C)C=CC(=O)C(C)(C)[C@@H]5CC[C@]43C)[C@@H]2C1` the IC50 was 200 nM.
With `CC1(C)CC[C@]2(C(=O)O)CC[C@]3(C)C(=CC(=O)[C@@H]4[C@@]5(C)C=C(C#N)C(=O)C(C)(C)[C@@H]5CC[C@]43C)C2C1` (some centres undefined) the IC50 was 40 nM.
`CC1(C)CC[C@]2(C(=O)O)CC[C@]3(C)C(=C2C1)CC(=O)[C@@H]1[C@@]2(C)C=C(C#N)C(=O)C(C)(C)[C@@H]2CC[C@]13C` gave an IC50 of 70 nM.

Organism: Mus musculus
Test: Inhibitory activity against production of nitric oxide (NO) induced by interferon-gamma (IFN-gamma) in mouse macrophages above 1 uM concentration; Toxic
Format: functional, organism-based
With `COC(=O)C1=C[C@]2(C)C3=CC(=O)C4C5CC(C)(C)CC[C@]5(C(=O)OC)CC[C@@]4(C)[C@]3(C)CC[C@H]2C(C)(C)C1=O` (some centres undefined) the IC50 was “Toxic”.
With `COC(=O)[C@]12CCC(C)(C)CC1C1=CC[C@@H]3[C@@]4(C)C=C(C=O)C(=O)C(C)(C)[C@@H]4CC[C@@]3(C)[C@]1(C)CC2` (some centres undefined) the IC50 was “Toxic”.
In the case of `CC1(C)CC[C@]2(C(=O)O)CC[C@]3(C)C(=CC[C@@H]4[C@@]5(C)C=C(C=O)C(=O)C(C)(C)[C@@H]5CC[C@]43C)C2C1` (some centres undefined), the IC50 is reported as “Toxic”.

Organism: Mus musculus
Test: Inhibitory activity against production of nitric oxide (NO) induced by interferon-gamma (IFN-gamma) in mouse macrophages below 1 uM concentration; Inactive
Format: functional, organism-based
In the case of `COC(=O)C1=C[C@]2(C)C3=CC(=O)C4C5CC(C)(C)CC[C@]5(C(=O)OC)CC[C@@]4(C)[C@]3(C)CC[C@H]2C(C)(C)C1=O` (some centres undefined), the IC50 is reported as “Not Active”.
`COC(=O)[C@]12CCC(C)(C)CC1C1=CC[C@@H]3[C@@]4(C)C=C(C=O)C(=O)C(C)(C)[C@@H]4CC[C@@]3(C)[C@]1(C)CC2` (some centres undefined) was tested, and the IC50 was “Not Active”.
`CC1(C)CC[C@]2(C(=O)O)CC[C@]3(C)C(=CC[C@@H]4[C@@]5(C)C=C(C=O)C(=O)C(C)(C)[C@@H]5CC[C@]43C)C2C1` (some centres undefined) was tested, and the IC50 was “Not Active”.

Source: ChEMBL document CHEMBL1131907, “Novel synthetic oleanane triterpenoids: a series of highly active inhibitors of nitric oxide production in mouse macrophages” (Bioorg Med Chem Lett, 1999)
